Reference: PMC3467072 (Nucleic Acids Research, 2012)

Tested on: Rv3066–IR1
Format: binding, Mycobacterium tuberculosis
Settings: 1 µM ethidium versus no ethidium

Compound: CC[n+]1c(-c2ccccc2)c2cc(N)ccc2c2ccc(N)cc21 [ethidium, ethidium bromide]
- Weakening of the binding affinity between Rv3066 and IR1: 2.4 times
